Laboratory results published in patent US11370761B2, “Voltage-dependent T-type calcium channel inhibitor” (Nippon Chemiphar Co., Ltd., priority 2017, dated 2022).
Structures can show the parent of a compound that is named as a salt.

How the values were obtained:
human Cav3.2 channel [1] = biological target: T1, human Cav3.2 channel (Homo sapiens, UniProt O95180); assay: Electrophysiological evaluation, automated whole-cell patch clamp of Cav3.2 channel current (Pharmacological Test 2); assay type: cell-based
T1 construct: expressed in transfected cells
T1 sequence (O95180 whole entry): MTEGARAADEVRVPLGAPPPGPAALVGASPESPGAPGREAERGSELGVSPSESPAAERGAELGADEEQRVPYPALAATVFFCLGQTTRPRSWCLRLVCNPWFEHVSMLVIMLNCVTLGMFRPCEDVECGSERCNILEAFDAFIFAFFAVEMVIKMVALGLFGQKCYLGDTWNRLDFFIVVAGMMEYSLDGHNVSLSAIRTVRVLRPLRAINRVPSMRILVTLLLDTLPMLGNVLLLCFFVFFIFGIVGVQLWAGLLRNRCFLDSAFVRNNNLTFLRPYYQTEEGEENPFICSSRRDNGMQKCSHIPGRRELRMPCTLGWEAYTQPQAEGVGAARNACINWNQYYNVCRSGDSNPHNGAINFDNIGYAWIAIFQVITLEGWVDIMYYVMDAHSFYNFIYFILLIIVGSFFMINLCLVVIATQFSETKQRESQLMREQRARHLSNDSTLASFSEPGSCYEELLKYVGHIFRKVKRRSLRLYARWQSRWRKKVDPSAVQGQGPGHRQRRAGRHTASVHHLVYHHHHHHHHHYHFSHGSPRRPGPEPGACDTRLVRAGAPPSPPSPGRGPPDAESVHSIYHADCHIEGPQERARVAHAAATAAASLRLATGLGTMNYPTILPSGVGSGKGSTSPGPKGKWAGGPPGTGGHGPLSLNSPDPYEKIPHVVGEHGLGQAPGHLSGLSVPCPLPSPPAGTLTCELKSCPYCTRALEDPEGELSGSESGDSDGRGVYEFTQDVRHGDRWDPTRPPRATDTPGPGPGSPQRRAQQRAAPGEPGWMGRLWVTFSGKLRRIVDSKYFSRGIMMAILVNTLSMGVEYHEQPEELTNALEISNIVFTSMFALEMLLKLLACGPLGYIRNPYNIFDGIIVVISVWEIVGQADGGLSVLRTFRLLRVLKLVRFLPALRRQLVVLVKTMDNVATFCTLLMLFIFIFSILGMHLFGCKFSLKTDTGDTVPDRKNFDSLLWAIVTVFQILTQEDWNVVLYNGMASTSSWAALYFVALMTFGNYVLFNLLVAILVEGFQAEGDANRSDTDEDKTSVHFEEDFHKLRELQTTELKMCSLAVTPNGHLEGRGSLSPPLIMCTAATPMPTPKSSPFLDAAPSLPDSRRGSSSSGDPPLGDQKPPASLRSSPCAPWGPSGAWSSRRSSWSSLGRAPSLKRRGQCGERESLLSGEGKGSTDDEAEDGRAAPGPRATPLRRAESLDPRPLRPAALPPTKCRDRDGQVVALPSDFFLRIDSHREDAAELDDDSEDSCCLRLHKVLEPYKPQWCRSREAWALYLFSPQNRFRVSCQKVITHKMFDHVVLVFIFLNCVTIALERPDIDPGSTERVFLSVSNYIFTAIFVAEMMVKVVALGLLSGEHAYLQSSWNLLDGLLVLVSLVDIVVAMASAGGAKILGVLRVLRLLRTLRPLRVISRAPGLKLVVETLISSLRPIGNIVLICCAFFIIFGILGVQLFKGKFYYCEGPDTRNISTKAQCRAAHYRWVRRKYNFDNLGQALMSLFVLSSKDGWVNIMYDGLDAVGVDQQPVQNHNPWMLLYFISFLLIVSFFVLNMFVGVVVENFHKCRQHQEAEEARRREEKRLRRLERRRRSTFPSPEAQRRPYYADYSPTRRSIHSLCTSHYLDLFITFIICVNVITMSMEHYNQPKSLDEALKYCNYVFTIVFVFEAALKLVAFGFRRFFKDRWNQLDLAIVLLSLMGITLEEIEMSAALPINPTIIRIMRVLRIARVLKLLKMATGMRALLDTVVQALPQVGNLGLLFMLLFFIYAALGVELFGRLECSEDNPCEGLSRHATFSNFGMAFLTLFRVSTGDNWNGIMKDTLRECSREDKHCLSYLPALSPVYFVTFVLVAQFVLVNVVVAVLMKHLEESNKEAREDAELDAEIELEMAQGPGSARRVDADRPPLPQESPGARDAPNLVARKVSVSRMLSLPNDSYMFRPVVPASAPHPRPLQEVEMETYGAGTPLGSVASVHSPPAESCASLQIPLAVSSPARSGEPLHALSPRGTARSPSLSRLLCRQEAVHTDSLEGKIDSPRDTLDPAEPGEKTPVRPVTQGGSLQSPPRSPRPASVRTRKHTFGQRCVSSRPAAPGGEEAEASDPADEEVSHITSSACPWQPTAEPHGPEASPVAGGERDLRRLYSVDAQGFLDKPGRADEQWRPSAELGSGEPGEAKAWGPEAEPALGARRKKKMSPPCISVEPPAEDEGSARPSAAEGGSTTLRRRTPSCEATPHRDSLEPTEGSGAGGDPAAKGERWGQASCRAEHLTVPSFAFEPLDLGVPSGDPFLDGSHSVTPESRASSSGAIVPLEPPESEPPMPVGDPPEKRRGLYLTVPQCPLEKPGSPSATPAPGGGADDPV
Method: The human Cav3.2 channel expressing stable cell line prepared by the test method (1) of Example 36 was seeded in a 10-cm dish using a DMEM medium containing 10% FBS, followed by culturing 37° C. for 24 hours under a 5% CO2 condition. The cells were detached using Accutase, and suspended in ice-cooled extracellular fluid for use. A Cav3.2 channel current was measured using an automated patch clamp system (Port-a-Patch; Nanion Technologies, EPC-10; HEKA Elektronik GmbH, Patchmaster; HEKA Elektronik GmbH) and buffers shown below, by a whole-cell patch-clamp method. The measurement of the Cav3.2 channel current was performed at room temperature, a measurement condition was a holding potential of −80 mV, a depolarization potential was −20 mV, a depolarization time was 100 msec, and a depolarization frequency was 10 sec. The Cav3.2 channel current was a peak value of an inward current observed at the time of depolarization to −20 mV.
The test compound was obtained by diluting a DMSO solution 1000 times with extracellular fluid to prepare a solution having a target concentration. The test compound was applied using an external perfusion system (Nanion Technologies) until the Cav3.2 channel current was stabilized, and a maximum of five concentrations from the low concentration side were cumulatively applied. An inhibition rate of the test compound was calculated from a change rate between a current value immediately before application of the test compound and the Cav3.2 channel current after application of the test compound (in a condition of holding potential of −80 mV, a concentration of the test compound was 0.3 μM, and in a condition of holding potential of −100 mV, a concentration of the test compound was 3 μM).
Extracellular fluid: 135 mM NaCl, 4 mM KCl, 1 mM MgCl2, 5 mM CaCl2, 5 mM D-Glucose, 10 mM HEPES, pH 7.4
Electrode internal fluid: 10 mM NaCl, 10 mM HEPES, 50 mM CsCl, 60 mM Cs-Fluoride, 20 mM EGTA, pH 7.2

human Cav3.2 channel [2] = biological target: T1, human Cav3.2 channel; assay: Intracellular calcium concentration measurement in human Cav3.2 channel expressing stable cell line (Pharmacological Test 1); assay type: cell-based; conditions: HEK293 cells stably expressing human Cav3.2, Fluo-4 AM fluorescence, KCl stimulation; read-out: Cav3.2 channel inhibitory action
Excerpt: (1) Construction of Human Cav3.2 Channel Expressing Stable Cell Line
A sequence in which a HindIII site and a kozak sequence (GCCACC) was provided on a 5′ side of a human Cav3.2 channel open reading frame (ORF) gene and a KpnI site was provided on a 3′ side thereof was incorporated into pcDNA3.1(+) (Thermo Fisher Scientific #V790-20), and the resultant was transfected into a HEK293 cell (ATCC No. CRL-1573) according to a protocol of FuGENE (registered trademark) HD Transfection Reagent (Promega #E2311).
(2) Method of Measuring Intracellular Calcium Concentration
The human Cav3.2 channel expressing stable cell line prepared by the test method (1) was seeded in a 96-well plate using a Dulbecco's modified Eagle's medium (DMEM medium) containing 10% fetal bovine serum (FBS), followed by culturing 37° C. for 48 hours under a 5% CO2 condition. Thereafter, the medium was removed, and each well washed with an A buffer was treated with 80 μL of a fluorescent dye solution containing a liquid mixture of 22 μg of a calcium fluorescent indicator Fluo-4 AM (Dojindo Molecular Technologies, Inc., #F311), 20 μL of dimethyl sulfoxide (DMSO), 1 μL of 10% Pluronic F-127 (Thermo Fisher Scientific #P6866), and 4 mL of the A buffer. After being left to stand for 45 minutes at room temperature under a light shielding condition, the cells were washed with a B buffer. In DMSO having the same final concentration as the test compound as a negative control, and the test compound dissolved in DMSO to have a final concentration of 0.1%, each test compound concentration solution containing the B buffer was added to each well. The cells were left to stand for additional 15 minutes at room temperature under a light shielding condition, and were measured using microplate reader EnVision (PerkinElmer Co., Ltd.) by the following method. First, after measuring background fluorescence in each well, an ionophore was added, and baseline fluorescence was measured. Thereafter, B buffer containing added KCl at a concentration of 83.8 mM was added to each well, and an increase in fluorescence due to calcium influx caused by the stimulation was measured for 10 seconds. Inhibition percentage was calculated from the maximum fluorescence increase value from the baseline, and an IC50 value was calculated by plotting a logarithmic value of the test compound concentration and inhibition activity. The measurement was performed by observing fluorescence of 510 nm emitted when the cells were irradiated with excitation light of 485 nm.
A buffer: 140 mM NaCl, 5 mM KCl, 1 mM MgCl2, 0.5 mM CaCl2, 10 mM Glucose, 10 mM HEPES, pH 7.3
B buffer: potassium equilibrium potential: −92 mV

Compound | IC50 (human Cav3.2 channel [2]) [nM] | further results
C[C@@H](NC(=O)C1CC1c1nc2ccccc2[nH]1)c1cnc(OCC(F)(F)F)cn1 (stereo partly shown) [RQ-00311651, reference compound] |  | inhibition at 0.3 µM (human Cav3.2 channel [1]; 0.3 μM test compound, holding potential −80 mV, depolarization to −20 mV, read-out: Cav3.2 channel current inhibition rate in test compound of 0.3 μM (holding potential of −80 mV) (%)): 17%; inhibition at 3 µM (human Cav3.2 channel [1]; 3 μM test compound, holding potential −100 mV, read-out: Cav3.2 channel current inhibition rate in test compound of 3 μM (holding potential of −100 mV) (%)): 14%
CC(NC(=O)C1CC1c1nc2ccccc2[nH]1)C(=O)Nc1cnccn1 (stereo not drawn) [Example 17, Trans-2-(1H-benzo[d]imidazol-2-yl)-N-(1-oxo-1-(pyrazin-2-ylamino)propan-2-yl) cyclopropane-1-carboxamide] | > 10000 | 
O=C(NC1CCN(c2ccc(C(F)(F)F)cc2)C1=O)[C@H]1C[C@@H]1c1nc2ccccc2[nH]1 (single isomer, unassigned) [Example 23A] | 1000 to 10000 | 
CC(NC(=O)C1CC1c1nc2ccccc2[nH]1)C(=O)NC1CN(C(=O)OC(C)(C)C)C1 (stereo not drawn) [Example 10, tert-Butyl trans-3-(2-(2-(1H-benzo[d]imidazol-2-yl)cyclopropane-1-carboxamido)propanamido)azetidine-1-carboxylate] | > 10000 | 
O=C(NC1(C(=O)Nc2ccccc2C(F)(F)F)CC1)[C@H]1C[C@@H]1c1nc2ccccc2[nH]1 [Example 25, 1-((1S, 2S)-2-(1H-Benzo[d]imidazol-2-yl)cyclopropane-1-carboxamido)-N-(2-(trifluoromethyl)phenyl) cyclopropane-1-carboxamide] | 1000 to 10000 | 
CC(NC(=O)C1CC1c1nc2ccccc2[nH]1)C(=O)NC1CCNCC1 (stereo not drawn) [Example 12, Trans-2-(1H-benzo[d]imidazol-2-yl)-N-(1-oxo-1-(piperidin-4-ylamino)propan-2-yl) cyclopropane-1-carboxamide hydrochloride] | 1000 to 10000 | 
CC(C)N(C(=O)CNC(=O)[C@H]1C[C@@H]1c1nc2ccccc2[nH]1)c1ccc(C(F)(F)F)nc1 [Example 30, (1S, 2S)-2-(1H-Benzo[d]imidazol-2-yl)-N-(2-(isopropyl (6-(trifluoromethyl)pyridin-3-yl)amino)-2-oxoethyl) cyclopropane-1-carboxamide] | > 10000 | 
CC(NC(=O)C1CC1c1nc2ccccc2[nH]1)C(=O)Nc1ccc(Cl)cc1 (single isomer, unassigned) [Example 16B, Trans-2-(1H-benzo[d]imidazol-2-yl)-N-(1-((4-chlorophenyl)amino)-1-oxopropan-2-yl) cyclopropane-1-carboxamide] | 1000 to 10000 | 
CC(NC(=O)C1CC1c1nc2ccccc2[nH]1)C(=O)N(C)c1ccc(C(F)(F)F)cc1 (single isomer, unassigned) [Example 8B, Trans-2-(1H-benzo[d]imidazol-2-yl)-N-(1-(methyl(4-(trifluoromethyl)phenyl)amino)-1-oxopropan-2-yl) cyclopropane-1-carboxamide] | 1000 to 10000 | 
O=C(Nc1ccc(C(F)(F)F)cc1)C1CCCN1C(=O)C1CC1c1nc2ccccc2[nH]1 (single isomer, unassigned) [Example 19B, Trans-1-(2-(1H-benzo[d]imidazol-2-yl)cyclopropane-1-carbonyl)-N-(4-(trifluoromethyl)phenyl)pyrrolidine-2-carboxamide] | 1000 to 10000 | 
CC(C)Oc1ccc(NC(=O)C(C)NC(=O)C2CC2c2nc3ccccc3[nH]2)cc1 (stereo not drawn) [Example 3, Trans-2-(1H-benzo[d]imidazol-2-yl)-N-(1-((4-isopropoxyphenyl)amino)-1-oxopropan-2-yl) cyclopropane-1-carboxamide] | 1000 to 10000 | 
CC(NC(=O)C1CC1c1nc2ccccc2[nH]1)C(=O)Nc1cnc(Br)cn1 (single isomer, unassigned) [Example 18B, Trans-2-(1H-benzo[d]imidazol-2-yl)-N-(1-((5-bromopyrazin-2-yl)amino)-1-oxopropan-2-yl) cyclopropane-1-carboxamide] | > 10000 | 

More lines, main results first:

IC50 (human Cav3.2 channel [2]) [nM] | Compound | further results
≤ 100 | CCn1c([C@H]2C[C@@H]2C(=O)NC2(C(=O)Nc3ccc(C(F)(F)F)nc3)CC2)nc2ccccc21 [Example 27, 1-((1S, 2S)-2-(1-Ethyl-1H-benzo[d]imidazol-2-yl)cyclopropane-1-carboxamido)-N-(6-(trifluoromethyl)pyridin-3-yl) cyclopropane-1-carboxamide] | 
1000 to 10000 | CC(NC(=O)C1CC1c1nc2ccccc2[nH]1)C(=O)Nc1ccc(C#N)cc1 (single isomer, unassigned) [Example 6B, Trans-2-(1H-benzo[d]imidazol-2-yl)-N-(1-((4-cyanophenyl)amino)-1-oxopropan-2-yl) cyclopropane-1-carboxamide] | 
100 to 1000 | CCCc1ccc(NC(=O)C(C)NC(=O)C2CC2c2nc3ccccc3[nH]2)cc1 (single isomer, unassigned) [Example 2A, Trans-2-(1H-benzo[d]imidazol-2-yl)-N-(1-oxo-1-((4-propylphenyl)amino)propan-2-yl) cyclopropane-1-carboxamide] | 
100 to 1000 | O=C(NC1CCN(c2ccc(C(F)(F)F)cc2)C1=O)[C@H]1C[C@@H]1c1nc2ccccc2[nH]1 (single isomer, unassigned) [Example 23B] | 
100 to 1000 | O=C(NC1(C(=O)Nc2cc(F)cc(C(F)(F)F)c2)CC1)[C@H]1C[C@@H]1c1nc2ccccc2[nH]1 [Example 42, 1-((1S, 2S)-2-(1H-Benzo[d]imidazol-2-yl)cyclopropane-1-carboxamido)-N-(3-fluoro-5-(trifluoromethyl)phenyl) cyclopropane-1-carboxamide] | 
100 to 1000 | CCCc1ccc(NC(=O)C(C)NC(=O)C2CC2c2nc3ccccc3[nH]2)cc1 (single isomer, unassigned) [Example 1B, Trans-2-(1H-benzo[d]imidazol-2-yl)-N-(1-oxo-1-((4-propylphenyl)amino)propan-2-yl) cyclopropane-1-carboxamide] | 
100 to 1000 | CC(NC(=O)C1CC1c1nc2ccccc2[nH]1)C(=O)Nc1ccc(Cl)cc1 (single isomer, unassigned) [Example 16A, Trans-2-(1H-benzo[d]imidazol-2-yl)-N-(1-((4-chlorophenyl)amino)-1-oxopropan-2-yl) cyclopropane-1-carboxamide] | 
100 to 1000 | CC(NC(=O)C1CC1c1nc2ccccc2[nH]1)C(=O)Nc1ccc(C(C)(C)C)cc1 (single isomer, unassigned) [Example 7B, Trans-2-(1H-benzo[d]imidazol-2-yl)-N-(1-((4-(tert-butyl)phenyl)amino)-1-oxopropan-2-yl) cyclopropane-1-carboxamide] | 
≤ 100 | CC(NC(=O)C1CC1c1nc2ccccc2[nH]1)C(=O)Nc1cccc(C(F)(F)F)c1 (single isomer, unassigned) [Example 38B, Trans-2-(1H-benzo[d]imidazol-2-yl)-N-(1-oxo-1-((3-(trifluoromethyl)phenyl)amino)propan-2-yl) cyclopropane-1-carboxamide] | 
